Earlier results in patent publication US20100212666A1 (priority 2006, published 2010).

Conditions: in vivo

## CC(C)c1cccc(C(C)C)c1O [propofol]
  Effect on resting ventilation at 1 C50 for respiratory depression: minimally depresses resting ventilation
  Sedation at 1 C50 for respiratory depression: adequate sedation
